Reference: patent US6599898B2, “Use of certain substituted caprolactam carbonates and ethers in treating tumors” (Novartis AG, priority 2000, dated 2003)

Experiments:
[1] = test system: MDA-MB-435 tumor xenografts; assay: Human tumor xenograft growing s.c. in athymic nude mice; type: in vivo, athymic nude mouse; details: 3×/week for 3 weeks, * = p<0.05
Description: (§1) Utilizing this model, one can measure the ability of test compounds to inhibit the growth of human tumor xenografts growing subcutaneously (s.c.) in athymic nude mice. The histologic tumor type employed was MDA-MB-435 breast carcinoma for Ex.1 and 7 and A549 non-small cell lung carcinoma for Ex. 1-3.
MDA-MB-435 human breast carcinoma: Treatments were started 15 d post implantation (3×10^6 cells/mouse), when a mean tumor volume of approximately 45 mm^3 was reached. Ex. 1 and 7 were administered iv at three times per week for 3 weeks (days 15, 17, 20, 22, 24, 27, 29, and 31), at 3.3, 10, and 33 μmol/kg. Doxorubicin was administered iv at 2 mg/kg using the same schedule. Each data point represents tumor growth (mean±SEM), or body weight (mean), with an initial group size of n=8, from a representative experiment performed twice. An asterisk (*) indicates p<0.05 using a one-tailed Student's t-test.
(§2) Toxicity was monitored by recording average group body weights twice weekly, and by daily observation of general health. Efficacy was monitored by taking measurements of tumor length, width, and depth weekly using digital calipers coupled to automated data collectors. Mean tumor volume (MTV) at initiation of therapy was subtracted from final MTV in order to express the actual tumor growth during treatment (Δ MTV). Anti-tumor activity was expressed as % T/C(Δ MTV of treated group÷Δ MTV of control group×100%). Statistical significance was evaluated using a one-tailed Student's t-test (p<0.05).

[2] = test system: MDA-MB-435 human breast carcinoma; assay: Anchorage Dependent Growth Monolayer Assay (ADGMA), MTS; type: cell-based; details: MDA-MB-435, 72 h, 3-day exposure, MTS A490, read-out: IC50 (average±S.D.) MDA-MB-435
Description: As indicated above, all of the compounds of formula I, and their corresponding pharmaceutically acceptable acid addition salts, are anti-tumor agents and are, therefore, useful in inhibiting the growth of various lymphomas, sarcomas, carcinomas, myelomas, and leukemia cell lines. […]
The ADGMA compares the number of viable cells following a 3-day exposure to a test compound relative to a number of cells present at the time the test compound was added. […] The absorbance at 490 nm (A490) of the formazan derivative is proportional to the number of viable cells. […]
Cell lines are trypsinized and counted using a Coulter counter to determine plating densities. […] The number of cells plates as determined in preliminary experiments, results in cell densities of 75-90% of confluency by 4 days after plating. Initial cell densities, assayed one day after plating, are roughly 0.15-0.20 absorbance units greater than the media blank. […] A490 of control plates is read 4 h after MTS addition to determine initial cell density values for each cell line. Three days after addition of test compound, 10 μL/well of MTS mixture is added to the test plates and A490 is read 4 h later. A490 values for wells containing cells are corrected for media absorbance, then normalized to initial density readings to determine percent net growth. […]

A549 tumor xenografts = assay: Human tumor xenograft growing s.c. in athymic nude mice; type: in vivo, athymic nude mouse; details: 5×/week for 2 weeks, recorded on day 24, * = p<0.05
Description: as §1
A549 non-small cell lung carcinoma: Treatments were started 17 d post-implantation (1×10^7 cells/mouse), when a mean tumor volume of approximately 120 mm^3 was reached. Ex. 1-3 were administered iv on days 17-21 (followed by 2 d rest, then a second cycle of treatment on days 24-28). Total daily doses of 10 or 30 μmol/kg were administered as a single injection. Data in this table were recorded on day 24, 3 d after the last treatment of the first cycle. An asterisk (*) indicates p<0.05 using a one-tailed Student's t-Test.
as §2, with “Mean tumor volume (MTV) at initiation of therapy was subtracted from final MTV in order to express the actual tumor growth during treatment (Δ MTV).” left out

Row | Compound | % T/C ([1]; 3.3 μmol/kg iv) [%] | % T/C ([1]; 10 μmol/kg iv) [%] | % T/C ([1]; 33 μmol/kg iv) | IC50 [2] [nM] | % T/C (A549 tumor xenografts; 10 μmol/kg iv daily) | % T/C (A549 tumor xenografts; 30 μmol/kg iv daily)
1 | CCCCCCCCCCCOCC(=O)O[C@@H]1CC[C@H](NC(=O)[C@H](OC)[C@H](O)[C@@H](O)[C@H](O)/C=C/C(C)(C)C)C(=O)NC1 [Ex. 7, (2R,3R,4S,5R,6E)-3,4,5-trihydroxy-2-methoxy-8,8-dimethyl-N-[(3S,6R)-hexahydro-2-oxo-6-([[undecyloxy]acetyl]oxy)-2H-azepin-3-yl]non-6-enonamide] | 102 | 64 | 30* % | 61 ± 95 | – | –
2 | CCCCCOC(=O)O[C@@H]1CC[C@H](NC(=O)[C@H](OC)[C@H](O)[C@@H](O)[C@H](O)/C=C/C(C)(C)C)C(=O)NC1 [Ex. 2, (2R,3R,4S,5R,6E)-3,4,5-trihydroxy-2-methoxy-8,8-dimethyl-N-[(3S,6R)-hexahydro-2-oxo-6-([[pentyloxy]carbonyl]oxy)-2H-azepin-3-yl]non-6-enonamide] | – | – | – | – | 32* % | 46* %
